This is an account of results in paper PMC10589313 (Nature Communications, 2023).

In one assay the test system is H4R. The following applies: cited from earlier work.
The next assay addresses H3R. The following applies: cited from earlier work.
A further assay deals with T1, human wild-type H4R (Homo sapiens, UniProt Q9H3N8).
T1 construct: a mutant H4R (human, full-length, and untagged); expressed in transfected cells; host or cells: HEK293A
Briefly: TGFα shedding assay, wild-type H4R. The following applies: WT H4R; AP-TGFα release; read-out: Emax (%) mean ± SEM. Type of assay: cell-based. On the procedure:
(§1) The mutants were prepared using the primers listed in Supplementary Table 2. […] The chimeric Gαq/i1 subunit comprises the Gαq backbone and Gαi1-derived six-amino acid C-terminus and couples with Gi-coupled H4R but induces a Gq-dependent TGFα shedding response. After culturing for 1 day and incubating at 37 °C in a 5% CO2 incubator, the transfected cells were harvested by trypsinization, neutralized with Dulbecco’s modified Eagle’s medium containing 10% fetal calf serum (FCS) and penicillin–streptomycin, washed once with Hank’s balanced salt solution (HBSS) containing 5 mM of HEPES (pH 7.4), and resuspended in 6 mL of the HEPES-containing HBSS. The cell suspension was seeded into a 96-well plate at a volume of […] per well (typically, 48 wells per transfected cells) and incubated for 30 min in the CO2 incubator. Test compounds (10×, diluted in 0.01% BSA and 5 mM of HEPES-containing HBSS, […] volume) were added to duplicate wells and incubated for 1 h. After centrifugation, the conditioned medium ([…]) was transferred to an empty 96-well plate. AP reaction solution [10 mM of p-nitrophenylphosphate (p-NPP), 120 mM of Tris–HCl (pH 9.5), 40 mM of NaCl, and 10 mM of MgCl2] was dispensed into the cell culture plates and plates containing conditioned media ([…]). Absorbance was measured at 405 nm before and after a 1-h incubation period at 25 °C using a microplate reader (iMark™ Microplate Absorbance Reader; BioRad). Ligand-induced AP-TGFα release was calculated as previously described. The vehicle-treated AP-TGFα release signal was set as a baseline unless otherwise specified. AP-TGFα release signals were fitted with a four-parameter sigmoidal concentration-response curve, from which EC50 and Emax values were obtained, using GraphPad Prism 9 software (GraphPad Prism). Negative values of logarithmically transformed EC50 values (pEC50) were used to calculate the mean and standard error of independent experiments.
(§2) All functional study data were analyzed using Prism 9 (GraphPad) and are presented as mean ± standard error of the mean (SEM) of three independent experiments. Statistical analyses were performed using Prism 9 (GraphPad) with one-way analysis of variance followed by Dunnett’s post-hoc test. Values with p < 0.05 are considered statistically significant.

The target in another assay is T2, human H4R D94A mutant (Homo sapiens, UniProt Q9H3N8, D94A).
T2 construct: a mutant H4R (human, full-length, and untagged); expressed in transfected cells; host or cells: HEK293A
Briefly: TGFα shedding assay, H4R D94A mutant. Type of assay: cell-based. The following applies: D94A mutant vs wild type. On the procedure: as §1
(§3) All functional study data were analyzed using Prism 9 (GraphPad) and are presented as mean ± standard error of the mean (SEM) of three independent experiments. […]

Another assay deals with T3, human H4R Y95A mutant (Homo sapiens, UniProt Q9H3N8, Y95A).
T3 construct: a mutant H4R (human, full-length, and untagged); expressed in transfected cells; host or cells: HEK293A
As to the kind of experiment: TGFα shedding assay, H4R Y95A mutant. The assay is classed as cell-based. The following applies: Y95A mutant vs wild type. On the procedure: as §1, §3

Another assay addresses T4, human H4R T99A mutant (Homo sapiens, UniProt Q9H3N8, T99A).
T4 construct: a mutant H4R (human, full-length, and untagged); expressed in transfected cells; host or cells: HEK293A
Briefly: TGFα shedding assay, H4R T99A mutant. The assay is classed as cell-based. The following applies: T99A mutant; AP-TGFα release; read-out: Emax (%) mean ± SEM. On the procedure: as §1, §2

In a further assay the target is T5, human H4R N147A mutant (Homo sapiens, UniProt Q9H3N8, N147A).
T5 construct: a mutant H4R (human, full-length, and untagged); expressed in transfected cells; host or cells: HEK293A
As to the kind of experiment: TGFα shedding assay, H4R N147A mutant. The assay is classed as cell-based. The following applies: N147A mutant; AP-TGFα release; read-out: Emax (%) mean ± SEM. On the procedure: as §1, §2

Another assay has as its target T6, human H4R N147W mutant (Homo sapiens, UniProt Q9H3N8, N147W).
T6 construct: a mutant H4R (human, full-length, and untagged); expressed in transfected cells; host or cells: HEK293A
As to the kind of experiment: TGFα shedding assay, H4R N147W mutant. Type of assay: cell-based. The following applies: N147W (H1R mimic) mutant vs wild type. The procedure: as §1, §2

The target of the next assay is T7, human H4R N147Y mutant (Homo sapiens, UniProt Q9H3N8, N147Y).
T7 construct: a mutant H4R (human, full-length, and untagged); expressed in transfected cells; host or cells: HEK293A
As to the kind of experiment: TGFα shedding assay, H4R N147Y mutant. Type of assay: cell-based. The following applies: N147Y mutant; AP-TGFα release; read-out: Emax (%) mean ± SEM. The procedure: as §1, §2

For the next assay, the target named is T8, human H4R E182N mutant (Homo sapiens, UniProt Q9H3N8, E182N).
T8 construct: a mutant H4R (human, full-length, and untagged); expressed in transfected cells; host or cells: HEK293A
As to the kind of experiment: TGFα shedding assay, H4R E182N mutant. The assay is classed as cell-based. The following applies: E182N (H1R mimic) mutant vs wild type. The procedure: as §1, §3

For a further assay, the target named is T9, human H4R Y319A mutant (Homo sapiens, UniProt Q9H3N8, Y319A).
T9 construct: a mutant H4R (human, full-length, and untagged); expressed in transfected cells; host or cells: HEK293A
As to the kind of experiment: TGFα shedding assay, H4R Y319A mutant. The following applies: Y319A, raw replicates. Type of assay: cell-based. The procedure: as §1, §2

The target of the next assay is T10, human H4R F344I mutant (Homo sapiens, UniProt Q9H3N8, F344I).
T10 construct: a mutant H4R (human, full-length, and untagged); expressed in transfected cells; host or cells: HEK293A
Briefly: TGFα shedding assay, H4R F344I mutant. The assay is classed as cell-based. The following applies: F344I (H1R mimic) mutant vs wild type. On the procedure:
as §1, §2

In the next assay the target is T11, human H4R Q347A mutant (Homo sapiens, UniProt Q9H3N8, Q347A).
T11 construct: a mutant H4R (human, full-length, and untagged); expressed in transfected cells; host or cells: HEK293A
Briefly: TGFα shedding assay, H4R Q347A mutant. Type of assay: cell-based. The following applies: Q347A mutant; AP-TGFα release; read-out: Emax (%) mean ± SEM. On the procedure: as §1, §2

Another assay addresses T12, human H4R Q347G mutant (Homo sapiens, UniProt Q9H3N8, Q347G).
T12 construct: a mutant H4R (human, full-length, and untagged); expressed in transfected cells; host or cells: HEK293A
Briefly: TGFα shedding assay, H4R Q347G mutant. Type of assay: cell-based. The following applies: for Shedding assay: Q347G, raw replicates. On the procedure:
as §1, §2

A further assay addresses T13, human H4R W348A mutant (Homo sapiens, UniProt Q9H3N8, W348A).
T13 construct: a mutant H4R (human, full-length, and untagged); expressed in transfected cells; host or cells: HEK293A
Briefly: TGFα shedding assay, H4R W348A mutant. The following applies: W348A mutant vs wild type. Type of assay: cell-based. On the procedure: as §1, §3

For the next assay, the system named is H1R. The following applies: range in words; cited from earlier work.
Another assay concerns H2R. The following applies: range in words; cited from earlier work.

Several values for one entry are separate records, joined by “and”; a condition that tells them apart may be missing. Identical values can stand only once.

T12 sequence (Q9H3N8 whole entry Q347G): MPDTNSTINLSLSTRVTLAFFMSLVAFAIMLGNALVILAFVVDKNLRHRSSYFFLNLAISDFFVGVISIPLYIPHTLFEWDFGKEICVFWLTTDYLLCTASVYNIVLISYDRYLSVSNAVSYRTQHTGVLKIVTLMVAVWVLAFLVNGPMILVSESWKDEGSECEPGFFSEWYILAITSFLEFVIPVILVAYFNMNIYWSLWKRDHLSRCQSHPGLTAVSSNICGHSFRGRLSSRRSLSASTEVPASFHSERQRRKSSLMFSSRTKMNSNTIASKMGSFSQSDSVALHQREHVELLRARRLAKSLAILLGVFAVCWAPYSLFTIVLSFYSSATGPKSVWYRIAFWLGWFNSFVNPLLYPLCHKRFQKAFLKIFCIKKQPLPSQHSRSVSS
T9 sequence (Q9H3N8 whole entry Y319A): as the sequence (Q9H3N8 whole entry Q347G) above, with Y319A, G347Q counted along it
T2 sequence (Q9H3N8 whole entry D94A): as the sequence (Q9H3N8 whole entry Q347G) above, with D94A, G347Q counted along it
T4 sequence (Q9H3N8 whole entry T99A): as the sequence (Q9H3N8 whole entry Q347G) above, with T99A, G347Q counted along it
T8 sequence (Q9H3N8 whole entry E182N): as the sequence (Q9H3N8 whole entry Q347G) above, with E182N, G347Q counted along it
T7 sequence (Q9H3N8 whole entry N147Y): as the sequence (Q9H3N8 whole entry Q347G) above, with N147Y, G347Q counted along it
T6 sequence (Q9H3N8 whole entry N147W): as the sequence (Q9H3N8 whole entry Q347G) above, with N147W, G347Q counted along it
T3 sequence (Q9H3N8 whole entry Y95A): as the sequence (Q9H3N8 whole entry Q347G) above, with Y95A, G347Q counted along it
T1 sequence (Q9H3N8 whole entry): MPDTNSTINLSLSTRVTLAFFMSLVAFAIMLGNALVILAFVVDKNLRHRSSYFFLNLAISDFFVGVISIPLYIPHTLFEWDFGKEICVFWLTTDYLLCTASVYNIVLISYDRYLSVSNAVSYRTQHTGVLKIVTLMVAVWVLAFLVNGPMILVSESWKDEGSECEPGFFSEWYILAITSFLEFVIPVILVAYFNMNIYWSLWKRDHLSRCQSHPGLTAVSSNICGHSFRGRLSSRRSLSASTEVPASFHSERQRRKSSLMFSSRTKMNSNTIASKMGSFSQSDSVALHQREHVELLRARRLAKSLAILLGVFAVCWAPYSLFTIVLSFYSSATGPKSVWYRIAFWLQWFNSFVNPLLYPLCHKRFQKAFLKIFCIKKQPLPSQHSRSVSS
T11 sequence (Q9H3N8 whole entry Q347A): as the sequence (Q9H3N8 whole entry Q347G) above, with G347A counted along it
T10 sequence (Q9H3N8 whole entry F344I): as the sequence (Q9H3N8 whole entry Q347G) above, with F344I, G347Q counted along it
T5 sequence (Q9H3N8 whole entry N147A): as the sequence (Q9H3N8 whole entry Q347G) above, with N147A, G347Q counted along it
T13 sequence (Q9H3N8 whole entry W348A): as the sequence (Q9H3N8 whole entry Q347G) above, with G347Q, W348A counted along it

Usually Ki stands for a dissociation constant, usually derived from enzyme kinetics or from competition with a known ligand. As for `CN=C(NC#N)NC[C@H]1CC[C@H](c2cnc[nH]2)O1` [OUP-16], the “selectivity for H4R” value with H4R (H4R over H3R) is on record as 16 fold. The inhibition constant (Ki) at H4R (read-out: H4R Ki) was 125 nM; at H3R (read-out: H3R Ki), 2000 nM.
By Emax is commonly meant the maximal effect, on the per cent scale that the assay sets. `NCCc1c[nH]cn1` [Histamine, histamine]: the Emax on human wild-type H4R was 19.4 ± 1.15%; at human H4R T99A mutant it was 22.8 ± 4.74%; on human H4R N147A mutant, 14.1 ± 1.55%; at human H4R N147Y mutant it was 12.7 ± 0.59%; on human H4R Q347A mutant it was 10.1 ± 0.39%; on human H4R Q347G mutant (Q347G mutant, AP-TGFα release, read-out: Emax (%) mean ± SEM) it was 8.8 ± 2.03%. For the same compound, the “signaling activity at mutant, in words” value on human H4R D94A mutant is listed as “loss of activity”; at human H4R Y95A mutant, “dramatically reduced”; at human H4R N147W mutant, “loss of signaling activity”; on human H4R E182N mutant, “loss of signaling activity”; at human H4R F344I mutant, “did not exhibit histamine activity”; on human H4R W348A mutant, “loss of signaling activity”. The Shedding assay at human H4R Y319A mutant (Histamine (M) -5) was 10.8768 and 12.6921 and 5.241 and 7.176 and 7.908 and 3.094 and 14.7688 and 13.1717 and 9.412; on human H4R Y319A mutant (Histamine (M) -6) it was 7.788 and 3.872 and 6.096 and 6.136 and 6.023 and -28.9656 and 4.365 and 5.9934 and -0.2046; on human H4R Y319A mutant (Histamine (M) -7), 2.44 and -1.231 and 2.155 and 1.85 and -1.394 and -29.3347 and -0.9921 and -1.291 and -2.241; at human H4R Y319A mutant (Histamine (M) -8) it was 0.6613 and -7 and -0.6175 and -0.4917 and -2.608 and -5.072 and 0.7937 and -1.913 and -2.583; at human H4R Y319A mutant (Histamine (M) -9), -1.209 and -22 and -6.981 and -12.6602 and -5.831 and -0.2422 and 1.077 and -0.278 and -3.864; on human H4R Y319A mutant (Histamine (M) -10), 1.569 and -4.989 and -1.258 and -2.207 and 3.939 and 1.7806 and 0.1134 and -2.911 and -0.5847. Further, the Shedding assay was 4.036 and 4.533 and 6.034 and 9.629 and 9.888 and 8.1039 and 5.715 and 9.816 and 2.227 on human H4R Q347G mutant (Histamine (M) -5); 1.244 and 2.414 and 2.709 and 6.101 and 2.59 and 6.7488 and 1.268 and 6.261 and -9.381 at human H4R Q347G mutant (Histamine (M) -6); -1.992 at human H4R Q347G mutant (Histamine (M) -7); -6.39 and -0.908 and -4.351 and 0.1532 and -4.023 and 1.012 and -2.686 and 0.1556 and -3.9539 on human H4R Q347G mutant (Histamine (M) -8); -4.698 and -2.781 and -3.3698 and 0.654 and -4.363 and -0.5978 and -4.585 and -1.275 and -2.147 on human H4R Q347G mutant (Histamine (M) -9); -5.104 and -0.2815 and -4.911 and 2.46 and -0.8571 and 1.119 and -8.947 and 3.16 and -0.4453 at human H4R Q347G mutant (Histamine (M) -10). Besides, the “affinity of H4R” value with H4R (range in words) is “nM range”. Also, in the assay on H3R (range in words), the “affinity of H3R” value was “nM range”. Besides, the “affinity of H1R” value in the assay with H1R is given as “μM range”. Moreover, the “affinity of H2R” value with H2R is listed as “μM range”.
